Drawing on patent US5622948A, “Pyrrole pyridazine and pyridazinone anti-inflammatory agents” (Syntex (U.S.A.) Inc., priority 1994, dated 1997), this text covers IC50 for 24 compounds.

As a reminder, the IC50 is the concentration that gives 50% inhibition.

Assay [1] deals with T1, COX II (Homo sapiens, UniProt P35354).
T1 sequence (P35354 18-604): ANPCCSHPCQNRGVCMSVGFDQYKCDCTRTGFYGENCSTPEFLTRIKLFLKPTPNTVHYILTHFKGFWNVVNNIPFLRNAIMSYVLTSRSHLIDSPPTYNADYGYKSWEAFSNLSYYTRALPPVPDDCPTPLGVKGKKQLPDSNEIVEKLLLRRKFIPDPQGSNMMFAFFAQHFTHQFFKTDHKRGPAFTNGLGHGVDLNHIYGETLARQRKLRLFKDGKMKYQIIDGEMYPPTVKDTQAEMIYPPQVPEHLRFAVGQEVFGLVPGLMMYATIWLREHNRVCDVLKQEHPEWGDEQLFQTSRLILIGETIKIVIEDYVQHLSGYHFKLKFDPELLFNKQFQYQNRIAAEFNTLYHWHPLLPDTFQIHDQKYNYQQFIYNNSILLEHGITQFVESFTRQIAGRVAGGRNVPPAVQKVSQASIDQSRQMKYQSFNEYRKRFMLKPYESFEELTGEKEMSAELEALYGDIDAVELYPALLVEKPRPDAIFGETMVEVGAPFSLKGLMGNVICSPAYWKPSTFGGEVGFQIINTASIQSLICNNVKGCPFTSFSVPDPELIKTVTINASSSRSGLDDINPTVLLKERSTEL
The experiment in a line: radiometric assay, COX II inhibition (human recombinant, baculovirus expressed, partially purified). Type of assay: biochemical. Further details: A 1.8 Kb DNA fragment containing the coding region of human COX II was generated by PCR; made in house; host or cells: Sf9 insect cells, baculovirus. Conditions: radiometric assay, human recombinant baculovirus expressed enzyme; read-out: COX II IC50 (Table 2). The protocol:
(§1) Human prostaglandin G/H synthase I and II ("COX I" and "COX II") were expressed in the baculovirus expression system and purified to high levels.
(§2) As described above, human recombinant COX I and COX II were cloned and expressed in a baculovirus system. Partially purified COX I and COX II enzymes were used for screening compounds for their ability to inhibit COX I and COX II activity, as described below.
(§3) Compound (16), in 2 μl DMSO, and control samples (carrier vehicles only) were mixed with COX I or COX II samples (e.g. fractions from the chromatography columns) in polypropylene tubes and preincubated with 2 mM phenol for 5 minutes and then with 1 μM hematin for an additional 5 minutes. The 150 μl reaction mixture consisted of 50 mM Tris --HCl, pH 7.9, 2 mM EDTA, 10% glycerol, 200 μM phenol, 1 μM hematin, 1-25 μl sample and 20 μM 1-[^14 C] arachidonate (80.000-100.000 cpm/tube). After 45 seconds at room temperature, the reaction was terminated by adding 200 μl of 2N HCl and 750 μl water. An aliquot (950 μl) of the reaction mixture was loaded onto a 1 ml C~ Sep-Pak (J. T. Baker, Phillipsburg, N.J.) which had been previously washed with 2-3 ml methanol and equilibrated with 5-6 ml distilled water. Oxygenated products were quantitatively eluted with 3 ml of acetonitrile, H2 O and acetic acid (50:50:0.1, v/v) and the radioactivity in the eluate determined in a scintillation counter.
(§4) Human recombinant 10 min incubation with Compound (16)
(§5) baculovirus 45 sec incubation with 20 μM AA
(§6) partially purified Separation of radioactive products

The target in assay [2] is COX I (Homo sapiens, UniProt P23219). The assay can be described thus: radiometric assay, COX I inhibition (human recombinant, baculovirus expressed, partially purified). As to conditions: radiometric assay, human recombinant baculovirus expressed enzyme; read-out: COX I IC50 (Table 2). Type of assay: biochemical. Further details: A 2 Kb fragment containing the coding region of COX I; made in house; host or cells: Sf9 insect cells, baculovirus (cDNA from Oxford Biomedical Research). The procedure: as §1, §2, §3, §4, §5, §6
Chain of COX I (P23219 24-599): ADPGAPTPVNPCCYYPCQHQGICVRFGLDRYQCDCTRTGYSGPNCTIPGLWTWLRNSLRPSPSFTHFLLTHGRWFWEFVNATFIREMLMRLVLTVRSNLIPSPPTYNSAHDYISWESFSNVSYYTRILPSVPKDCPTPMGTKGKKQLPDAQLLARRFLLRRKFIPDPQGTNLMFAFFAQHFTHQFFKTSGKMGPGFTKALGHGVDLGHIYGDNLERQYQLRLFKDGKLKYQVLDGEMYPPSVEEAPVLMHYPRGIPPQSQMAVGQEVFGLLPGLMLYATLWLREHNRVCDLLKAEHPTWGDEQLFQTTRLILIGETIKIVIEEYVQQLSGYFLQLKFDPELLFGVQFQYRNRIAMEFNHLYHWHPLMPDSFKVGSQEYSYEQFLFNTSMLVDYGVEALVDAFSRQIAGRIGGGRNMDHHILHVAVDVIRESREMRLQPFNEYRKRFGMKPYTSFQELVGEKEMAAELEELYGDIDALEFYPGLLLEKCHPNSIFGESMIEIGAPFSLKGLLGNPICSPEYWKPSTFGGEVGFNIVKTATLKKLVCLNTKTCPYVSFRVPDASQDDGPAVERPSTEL

For `CC(=O)n1nc(Cc2cc(C)c(C(=O)c3ccc(Cl)cc3)n2C)ccc1=O` [Compound 114, 2-acetyl-6-[5-(4-chloro-benzoyl)-1,4,-dimethyl-1H-pyrrol-2-ylmethyl]-2H-pyridazin-3-one], the results for the IC50 in assay [1] and in assay [2] were 660 nM and 82000 nM, respectively.

Turning to `COC(=O)Cn1nc(Cc2cc(C)c(C(=O)c3ccc(Cl)cc3)n2C)ccc1=O` [Compound 116, {3-[5-(4-chloro-benzoyl)-1,4,-dimethyl-1H-pyrrol-2-ylmethyl]-6-oxo-6H-pyridazin-1-yl}-acetic acid methyl ester], the half-maximal inhibitory concentration (IC50) was found to be 180 nM in assay [1] and 920 nM in assay [2].

Consider `Cc1cc(Cc2ccc(=O)n(CCO)n2)n(C)c1C(=O)c1ccc(Cl)cc1` [Compound 118, 6-[5-(4-chloro-benzoyl)-1,4,-dimethyl-1H-pyrrol-2-ylmethyl]-2-(2-hydroxy-ethyl)-2H-pyridazin-3-one], for which the IC50 in assay [1] came out at 800 nM; in assay [2] it was 76000 nM.

Take `Cc1cc(Cc2ccc(=O)n(CC(N)=O)n2)n(C)c1C(=O)c1ccc(Cl)cc1` [Compound 120, 2-{3-[5-(4-chloro-benzoyl)-1,4,-dimethyl-1H-pyrrol-2-ylmethyl]-6-oxo-6H-pyridazin-1-yl}-acetamide]: the half-inhibitory concentration (IC50) worked out at 800 nM in assay [1] and 8900 nM in assay [2].

For the compound `Cc1cc(Cc2ccc(=O)n(Cc3ccccc3)n2)n(C)c1C(=O)c1ccc(Cl)cc1` [Compound 121, 2-benzyl-6-[5-(4-chloro-benzoyl)-1,4,-dimethyl-1H-pyrrol-2-ylmethyl]-2H-pyridazin-3-one], the IC50 in assay [1] stood at 230 nM; in assay [2], 6300 nM.

Regarding `Cc1cc(Cc2ccc(=O)n(CC#N)n2)n(C)c1C(=O)c1ccc(Cl)cc1` [Compound 122, 6-[5-(4-chloro-benzoyl)-1,4,-dimethyl-1H-pyrrol-2-ylmethyl]-2-(cyano-methyl)-2H-pyridazin-3-one], the IC50 in assay [1] turned out to be 63 nM; in assay [2], 74 nM.

Turning to `Cc1cc(Cc2ccc(=O)n(CCF)n2)n(C)c1C(=O)c1ccc(Cl)cc1` [Compound 123, 6-[5-(4-chloro-benzoyl)-1,4-dimethyl-1H-pyrrol-2-ylmethyl]-2-(2-fluoroethyl)-2H-pyridazin-3-one], the IC50 is under 30 nM in assay [1] and 3500 nM in assay [2].

On to `COCCn1nc(Cc2cc(C)c(C(=O)c3ccc(Cl)cc3)n2C)ccc1=O` [Compound 124, 6-[5-(4-chloro-benzoyl)-1,4,-dimethyl-1H-pyrrol-2-ylmethyl]-2-(2-methoxy-ethyl)-2H-pyridazin-3-one], for which the IC50 in assay [1] worked out at 540 nM; in assay [2], 94000 nM.

For `CNC(=O)Cn1nc(Cc2cc(C)c(C(=O)c3ccc(Cl)cc3)n2C)ccc1=O` [Compound 125, 2-{3-[5-(4-chloro-benzoyl)-1,4,-dimethyl-1H-pyrrol-2-ylmethyl]-6-oxo-6H-pyridazin-1-yl}--N-methyl acetamide], the IC50 is 1600 nM in assay [1] and under 10000 nM in assay [2].

Take `C#CCn1nc(Cc2cc(C)c(C(=O)c3ccc(Cl)cc3)n2C)ccc1=O` [Compound 126, 6-[5-(4-chloro-benzoyl)-1,4-dimethyl-1H-pyrrol-2-ylmethyl]-2-prop-2-ynyl-2H-pyridazin-3-one]: the concentration for half-maximal inhibition (IC50) turned out to be 970 nM in assay [1] and 61400 nM in assay [2].

For `C=CCn1nc(Cc2cc(C)c(C(=O)c3ccc(Cl)cc3)n2C)ccc1=O` [Compound 127, 2-allyl-6-[5-(4-chloro-benzoyl)-1,4-dimethyl-1H-pyrrol-2-ylmethyl]-2H-pyridazin-3one], the IC50 in assay [1] was 670 nM; in assay [2], 57000 nM.

On to `Cc1cc(Cc2ccc(=O)n(Cc3ccc(F)cc3)n2)n(C)c1C(=O)c1ccc(Cl)cc1` [Compound 129, 6-[5-(4-chloro-benzoyl)-1,4,-dimethyl-1H-pyrrol-2-ylmethyl]-2-(4-fluorobenzyl)-2H-pyridazin-3-one], for which the IC50 stood at 67 nM in assay [1] and 3400 nM in assay [2].

Turning to `Cc1ccc(C(=O)c2cc(Br)c(Cc3ccc(=O)[nH]n3)n2C)cc1` [Compound 130, 6-[3-bromo-1-methyl-5-(4-methyl-benzoyl)-1H-pyrrol-2-ylmethyl]-2H-pyridazin-3-one], the half-inhibitory concentration (IC50) in assay [1] is 580 nM; in assay [2], over 100000 nM.

With `Cc1cc(Cc2ccc(=O)n(CCCl)n2)n(C)c1C(=O)c1ccc(Cl)cc1` [Compound 131, 6-[5-(4-chloro-benzoyl)-1,4-dimethyl-1H-pyrrol-2-ylmethyl]-2-(2-chloroethyl)-2H-pyridazin-3-one], the IC50 was determined as 120 nM in assay [1] and 5300 nM in assay [2].

`Cc1cc(Cc2ccc(=O)n(Cc3ccc(Cl)cc3)n2)n(C)c1C(=O)c1ccc(Cl)cc1` [Compound 133, 6-[5-(4-chloro-benzoyl)-1,4,-dimethyl-1H-pyrrol-2-ylmethyl]-2-(4-chlorobenzyl)-2H-pyridazin-3-one]: the figures for the IC50 in assay [1] and in assay [2] were 70 nM and 3700 nM, respectively.

Consider `CC(=O)OCCn1nc(Cc2cc(C)c(C(=O)c3ccc(Cl)cc3)n2C)ccc1=O` [Compound 135, acetic acid 2-{3-[5-(4-chloro-benzoyl)-1,4,-dimethyl-1H-pyrrol-2-ylmethyl]-6-oxo-6H-pyridazin-1-yl}ethyl ester], for which the IC50 was found to be 350 nM in assay [1] and 52000 nM in assay [2].

As to `Cc1cc(Cc2ccc(=O)n(CCNS(C)(=O)=O)n2)n(C)c1C(=O)c1ccc(Cl)cc1` [Compound 136, N-(2-{3-[5-(4-chloro-benzoyl)-1,4,-dimethyl-1H-pyrrol-2-ylmethyl]-6-oxo-6H-pyridazin-1-yl}-ethyl)-methanesulfonamide], the half-maximal inhibitory concentration (IC50) is 3060 nM in assay [1] and 829000 nM in assay [2].

In the case of `Cc1cc(Cc2ccc(=O)n(CCCO)n2)n(C)c1C(=O)c1ccc(Cl)cc1` [Compound 140, 6-[5-(4-chloro-benzoyl)-1,4,-dimethyl-1H-pyrrol-2-ylmethyl]-2-(3-hydroxy-1-propyl)-2H-pyridazin-3-one], the concentration for half-maximal inhibition (IC50) in assay [1] was 530 nM; in assay [2], 48000 nM.

As to `Cc1cc(Cc2cc(C)c(=O)[nH]n2)n(C)c1C(=O)c1ccc(Cl)cc1` [Compound 141, 6-[5-(4-chloro-benzoyl)-1,4-dimethyl-1H-pyrrol-2-ylmethyl]-4-methyl-2H-pyridazin-3-one], the IC50 in assay [1] worked out at 125 nM; in assay [2], 4900 nM.

As to `Cc1cc(Cc2ccc(=O)[nH]n2)n(C)c1C(=O)c1ccc(F)cc1` [Compound 142, 6-[1,4-dimethyl-5-(4-fluoro-benzoyl)-1H-pyrrol-2-ylmethyl]-2H-pyridazin-3-one], the half-inhibitory concentration (IC50) in assay [1] was 4160 nM; in assay [2], 67000 nM.

As for `Cc1cc(Cc2ccc(=O)[nH]n2)n(C)c1C(=O)c1cccs1` [Compound 144, 6-[1,4-dimethyl-5-(thienyl-2-carbonyl)-1H-pyrrol-2-ylmethyl]-2H-pyridazin-3-one], the IC50 worked out at 590 nM in assay [1] and 1000 nM in assay [2].

For `Cc1cc(Cc2ccc(=O)n(CCC#N)n2)n(C)c1C(=O)c1ccc(Cl)cc1` [Compound 145, 6-[5-(4-chloro-benzoyl)-1,4,-dimethyl-1H-pyrrol-2-ylmethyl]-2-(2-cyano-ethyl)-2H-pyridazin-3-one], the IC50 was 910 nM in assay [1] and 85000 nM in assay [2].

For `Cc1cccc(C)c1Cn1nc(Cc2cc(C)c(C(=O)c3ccc(Cl)cc3)n2C)ccc1=O` [Compound 151, 6-[5-(4-chloro-benzoyl)-1,4,-dimethyl-1H-pyrrol-2-ylmethyl]-2-(2,6-dimethylbenzyl)-2H-pyridazin-3-one], the half-inhibitory concentration (IC50) was under 100 nM in assay [1] and 3800 nM in assay [2].

For `Cc1cc(Cc2ccc(=O)n(Cc3c(Cl)cccc3Cl)n2)n(C)c1C(=O)c1ccc(Cl)cc1` [Compound 152, 6-[5-(4-chloro-benzoyl)-1,4,-dimethyl-1H-pyrrol-2-ylmethyl]-2-(2,6-dichlorobenzyl)-2H-pyridazin-3-one], the results for the 50% inhibitory concentration (IC50) in assay [1] and in assay [2] were 140 nM and 10000 nM, respectively.
